According to article PMC6116703, “Ethenesulfonyl fluoride derivatives as telomerase inhibitors: structure-based design, SAR, and anticancer evaluation in vitro” (Journal of Enzyme Inhibition and Medicinal Chemistry, 2018):
Read-outs that look alike come from different tables or passages of the source.

Experiments:
[1] = tested on: human breast cancer cell MDA-MB-231; assay: Cell proliferation (MTT) assay, MDA-MB-231; type: cell-based
Procedure: (§1) The antiproliferative activities evaluation was conducted by using a modified procedure as described in the literature. Briefly, target tumour cells were grown to log phase in RPMI 1640 medium supplemented with 10% fetal bovine serum. After diluting to 3 × 10^4 cells mL^−1 with the complete medium, 100 µL of the obtained cell suspension was added to each well of 96-well culture plates. The subsequent incubation was performed at 37 °C, 5% CO2 atmosphere for 24 h before subjecting to antiproliferation assessment. The tested samples at pre-set concentrations were added to six wells with Doxorubicin (AMD) co-assayed as a positive reference. After 48 h of exposure period, 25 µL of PBS containing 2.5 mg·mL^−1 of MTT was added to each well. After 4 h, the medium was replaced by 150 µL DMSO to dissolve the purple formazan crystals produced. The absorbance at 570 nm of each well was measured using an ELISA plate reader. The data represented the mean of three experiments in triplicate and were expressed as means ± SD using Student’s test.

human melanoma cell A375 = assay: Cell proliferation (MTT) assay, A375; type: cell-based
Procedure: as §1

[2] = tested on: human hepatoma cell SMMC-7721; assay: Cell proliferation (MTT) assay, SMMC-7721; type: cell-based; settings: read-out: IC50 SMMC-7721
Procedure: as §1

telomerase = biological target: T1, telomerase (Homo sapiens, UniProt O14746); assay: Telomerase activity TRAP-PCR-ELISA assay (A375 cell extract); type: biochemical; settings: TRAP-PCR-ELISA, A375 cells, 24 h treatment
T1 construct: endogenous in cells; host or cells: A375 human melanoma cells
T1 sequence (O14746 whole entry): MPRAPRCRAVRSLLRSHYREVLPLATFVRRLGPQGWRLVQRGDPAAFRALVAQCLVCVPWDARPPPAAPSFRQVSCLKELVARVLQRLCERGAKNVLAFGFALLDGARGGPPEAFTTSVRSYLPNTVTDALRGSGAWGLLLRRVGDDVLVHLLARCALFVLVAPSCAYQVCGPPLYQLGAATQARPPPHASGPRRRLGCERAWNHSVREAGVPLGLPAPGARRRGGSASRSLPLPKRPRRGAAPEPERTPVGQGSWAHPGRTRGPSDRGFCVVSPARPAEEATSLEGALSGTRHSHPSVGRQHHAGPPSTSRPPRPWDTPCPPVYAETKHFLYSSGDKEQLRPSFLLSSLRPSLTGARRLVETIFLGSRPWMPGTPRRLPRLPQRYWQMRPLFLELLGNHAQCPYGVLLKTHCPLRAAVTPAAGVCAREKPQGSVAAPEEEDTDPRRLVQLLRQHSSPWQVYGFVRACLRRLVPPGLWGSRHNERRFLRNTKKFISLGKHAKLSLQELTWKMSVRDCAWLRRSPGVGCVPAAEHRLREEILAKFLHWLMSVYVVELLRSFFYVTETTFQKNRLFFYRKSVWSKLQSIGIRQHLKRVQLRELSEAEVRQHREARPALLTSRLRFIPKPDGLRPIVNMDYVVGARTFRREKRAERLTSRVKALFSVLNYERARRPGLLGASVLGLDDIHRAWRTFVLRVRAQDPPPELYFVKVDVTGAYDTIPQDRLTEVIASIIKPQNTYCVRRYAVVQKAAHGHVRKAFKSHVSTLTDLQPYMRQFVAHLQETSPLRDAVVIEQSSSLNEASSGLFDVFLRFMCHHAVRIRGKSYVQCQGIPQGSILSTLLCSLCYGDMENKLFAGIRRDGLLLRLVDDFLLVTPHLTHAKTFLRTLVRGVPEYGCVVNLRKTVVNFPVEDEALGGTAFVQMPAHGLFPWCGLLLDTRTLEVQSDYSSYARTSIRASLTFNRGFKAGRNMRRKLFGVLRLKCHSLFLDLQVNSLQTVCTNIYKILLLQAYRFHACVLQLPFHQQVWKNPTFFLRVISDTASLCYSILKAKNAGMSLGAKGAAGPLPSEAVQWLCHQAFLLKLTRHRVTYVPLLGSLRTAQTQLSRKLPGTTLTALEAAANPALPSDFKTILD
Procedure: Thirty-six compounds were tested in a search for inhibitors of telomerase activity using the TRAP-PCR-ELISA assay. In detail, the A375 cells were firstly maintained in RPMI 1640 buffer (Hyclone, Miami, FL), supplemented with 10% fetal bovineserum (GIBCO, New York, NY), streptomycin (0.1 mg/mL) and penicillin (100 IU/mL) at 37 °C in a humidified atmosphere containing 5% CO2. After trypsinisation, 5 × 10^4 cultured cells in logarithmic growth were seeded into T25 flasks (Corning, New York, NY) and cultured to allow to adherence. […] After 24 h treatment, the cells were harvested by cell scraper orderly followed by washing once with PBS. The cells were lysed in 150 µL RIPA cell lysis buffer (Santa Cruz, Santa Cruz, CA), and incubated on ice for 30 min. The cellular supernatants were obtained via centrifugation at 12,000g for 20 min at 4 °C and stored at –80 °C. The TRAP-PCR-ELISA assay was performed using a telomerase detection kit (Roche, Basel, Switzerland) according to the manufacturer’s protocol. In brief, 2 µL of cell extracts were mixed with 48 µL TRAP reaction mixtures. TRAP primers and Taq polymerase are incubated at 25 °C for 30 min. PCR was then initiated at 94 °C, 120 s for predenaturation and performed using 35 cycles each consisting of 94 °C for 30 s, 50 °C for 30 s, 72 °C for 90 s. Then 20 µL of PCR products were hybridised to a digoxigenin (DIG)-labelled telomeric repeat specific detection probe. And the PCR products were immobilised via the biotin-labelled primer to a streptavidin-coated microtiter plate subsequently. The immobilised DNA fragments were detected with a peroxidase-conjugated anti-DIG antibody and visualised following the addition of the stop regent. The microtitre plate was assessed on TECAN Infinite M200 microplate reader (Mannedorf, Switzerland) at a wavelength of 490 nm, and the final value were presented as mean ± SD[23].

[3] = tested on: human gastric cancer cells MGC-803; assay: Cell proliferation (MTT) assay, MGC-803; type: cell-based; settings: read-out: IC50 MGC-803
Procedure: as §1

[4] = antiproliferative, MTT, 48 h exposure, read-out: IC50 MDA-MB-231
[5] = antiproliferative, MTT, 48 h exposure, read-out: IC50 A375
[6] = antiproliferative, MTT, 48 h exposure
[7] = IC50 inhibitory activity against telomerase
[8] = Homo sapiens, MDA-MB-231, 48 h, read-out: IC50 MDA-MB-231, antiproliferative, MTT, 48 h exposure
[9] = Homo sapiens, A-375, 48 h, read-out: IC50 A375, antiproliferative, MTT, 48 h exposure
[10] = read-out: IC50 A375, antiproliferative, MTT, 48 h exposure

Structure (SMILES)	IC50 [1, 4] [µM]	IC50 (human melanoma cell A375; [5]) [µM]	IC50 [2, 6] [µM]	IC50 (telomerase; [7]) [µM]	other results
O=Cc1ccc(/C=C/S(=O)(=O)F)o1 [Compound 37]	21.5 ± 1.29	9.09 ± 0.81	35.1 ± 0.49		
O=S(=O)(F)/C=C/c1cccc2c1oc1ccccc12 [Compound 38]	83.2 ± 2.91	40.8 ± 1.39			
O=S(=O)(F)/C=C/c1ccc(C(F)(F)F)nc1 [Compound 79]		23 ± 1.75			
Cc1ccccc1/C=C/S(=O)(=O)F [Compound 24]	41.8 ± 2.97	24.5 ± 1.55	52.8 ± 1.44		
O=S(=O)(F)/C=C/C=C/c1ccccc1C(F)(F)F [Compound 54]	28.5 ± 1.16	17.5 ± 1.52	19 ± 0.71		
O=Cc1cccc(/C=C/S(=O)(=O)F)c1 [Compound 60]		10.7 ± 0.8			
O=S(=O)(F)/C=C/c1cccc(C(F)(F)F)c1 [Compound 20]				4.17 ± 0.39	IC50 [1, 8]: 3.18 ± 0.2 µM; IC50 (human melanoma cell A375; [9]): 10.4 ± 0.82 µM; IC50 ([2]; Homo sapiens, SMMC-7721, 48 h): 20 ± 1.74 µM
O=[N+]([O-])c1cccc(/C=C/S(=O)(=O)F)c1 [Compound 22]				2.25 ± 0.3	IC50 [1, 8]: 6.54 ± 0.74 µM; IC50 (human melanoma cell A375; [9]): 4.14 ± 0.21 µM; IC50 ([2]; Homo sapiens, SMMC-7721, 48 h): 26.1 ± 0.73 µM
CCOC(=O)c1cccc(/C=C/S(=O)(=O)F)c1 [Compound 77]	19.4 ± 0.79	13.7 ± 1.29	23.6 ± 1.45		IC50 [3, 6]: 51.8 ± 0.87 µM
O=S(=O)(F)/C=C/c1ccccc1O [Compound 35]	7.41 ± 0.33	7.41 ± 0.77	36.5 ± 0.7		
O=S(=O)(F)/C=C/c1ccc(C(F)(F)F)cc1 [Compound 10]	29.8 ± 2.31	5.43 ± 0.4	40.1 ± 1.66		IC50 [3, 6]: 24.9 ± 0.82 µM
CC(=O)c1ccc(/C=C/S(=O)(=O)F)cc1 [Compound 11]	5.66 ± 0.28	10.6 ± 0.9	65.8 ± 1.79		
O=S(=O)(F)/C=C/c1ccccc1Cl [Compound 78]	35.2 ± 1.28	26.3 ± 2.35			
N#Cc1ccc(/C=C/S(=O)(=O)F)cc1 [Compound 13]				39 ± 1.29	
O=S(=O)(F)/C=C/c1cc2ccccc2s1 [Compound 42]					IC50 inhibitory activity against telomerase (telomerase): no
O=S(=O)(F)/C=C/c1cnn(-c2ccccc2)c1 [Compound 47]				2.13 ± 0.6	IC50 [1, 8]: 10.2 ± 0.44 µM; IC50 (human melanoma cell A375; [9]): 9.04 ± 0.29 µM; IC50 ([2]; Homo sapiens, SMMC-7721, 48 h): 21.2 ± 0.49 µM
O=S(=O)(F)/C=C/c1cccc(I)c1 [Compound 72]	22.6 ± 1	13 ± 0.77	16.1 ± 0.91		IC50 [3, 6]: 44.9 ± 1.13 µM
Cc1cccc(/C=C/S(=O)(=O)F)c1 [Compound 17]				10.1 ± 1.13	IC50 [1, 8]: 10.6 ± 0.91 µM; IC50 (human melanoma cell A375; [9]): 12.1 ± 1.19 µM
Cc1ccc(S(=O)(=O)n2cc(/C=C/S(=O)(=O)F)cn2)cc1 [Compound 61]					IC50 ([3]; Homo sapiens, MGC-803, 48 h): 27.1 ± 1.03 µM; IC50 [1, 8]: 26.9 ± 1.2 µM; IC50 (human melanoma cell A375; [9]): 27.3 ± 1 µM; IC50 ([2]; Homo sapiens, SMMC-7721, 48 h): 28.2 ± 1.49 µM
O=S(=O)(F)/C=C/c1cccc(Br)c1 [Compound 19]	12.1 ± 1.52	20.1 ± 0.9			
CS(=O)(=O)c1cccc(/C=C/S(=O)(=O)F)c1 [Compound 81]				2.55 ± 0.4	IC50 [1, 8]: 27.8 ± 1.32 µM; IC50 (human melanoma cell A375; [9]): 7.89 ± 0.56 µM; IC50 ([2]; Homo sapiens, SMMC-7721, 48 h): 34.9 ± 1.7 µM
O=S(=O)(F)/C=C/c1cc2ccccc2o1 [Compound 39]				48.8 ± 2.22	
Cc1ccc(/C=C/S(=O)(=O)F)cc1 [Compound 65]	30.5 ± 1.29	32.7 ± 1.22			
Cc1ccc(S(=O)(=O)n2ccc3cc(/C=C/S(=O)(=O)F)ccc32)cc1 [Compound 45]					IC50 (human melanoma cell A375; [9]): 8.61 ± 0.28 µM; IC50 ([2]; Homo sapiens, SMMC-7721, 48 h): 15.6 ± 0.78 µM
O=S(=O)(F)/C=C/c1cccc2ccccc12 [Compound 30]	25.1 ± 0.99	28 ± 1.31	2.29 ± 0.17		
O=S(=O)(F)/C=C/c1cc(O)cc(O)c1 [Compound 36]				1.44 ± 0.22	IC50 [1, 8]: 37.2 ± 1.4 µM; IC50 (human melanoma cell A375; [9]): 4.01 ± 0.68 µM; IC50 ([2]; Homo sapiens, SMMC-7721, 48 h): 29 ± 0.78 µM

Structure (SMILES)	IC50 [1, 4] [µM]	IC50 (human melanoma cell A375; [5]) [µM]	IC50 [2, 6] [µM]	IC50 (telomerase; [7]) [µM]	other results
O=S(=O)(F)/C=C/c1cc(F)nc(F)c1 [Compound 59]				44.2 ± 2.26	IC50 (human melanoma cell A375; [9]): 58 ± 1.71 µM
O=S(=O)(F)/C=C/c1ccsc1 [Compound 41]	10.6 ± 0.46	14.6 ± 1.2	28.8 ± 0.75		
COc1cccc(/C=C/S(=O)(=O)F)c1 [Compound 16]	28.5 ± 1.78	21.1 ± 0.87	45.6 ± 1.29		
Cc1ccc(/C=C/S(=O)(=O)F)c(C)c1 [Compound 27]	39.8 ± 2.55	7.83 ± 0.4	50.7 ± 1.82		
CSc1ccc(/C=C/S(=O)(=O)F)cc1 [Compound 64]	38.3 ± 0.9	23.9 ± 1.37			
COc1ccccc1/C=C/S(=O)(=O)F [Compound 23]	33.8 ± 2.89	25.3 ± 1.33			
O=C(O)c1ccc(/C=C/S(=O)(=O)F)cc1 [Compound 62]				39.9 ± 1.4	IC50 [1, 8]: 86.2 ± 2.44 µM; IC50 (human melanoma cell A375; [9]): 45.1 ± 1.4 µM
O=S(=O)(F)/C=C/c1cccc(F)c1 [Compound 18]				1.09 ± 0.11	IC50 [1, 8]: 5.24 ± 0.4 µM; IC50 (human melanoma cell A375; [9]): ~3 µM; IC50 (human melanoma cell A375; [10]): 3.82 ± 0.31 µM; IC50 ([2]; Homo sapiens, SMMC-7721, 48 h): 24.8 ± 1.58 µM
O=S(=O)(F)/C=C/C=C/c1ccc(C(F)(F)F)cc1 [Compound 52]	15.3 ± 0.82	13.3 ± 0.87	24.3 ± 1.19		
Cc1ccc(S(=O)(=O)n2cc(/C=C/S(=O)(=O)F)c3ccccc32)cc1 [Compound 44]				15.2 ± 1.56	IC50 (human melanoma cell A375; [9]): 5.34 ± 0.3 µM; IC50 ([2]; Homo sapiens, SMMC-7721, 48 h): 9.24 ± 0.4 µM
O=S(=O)(F)/C=C/c1ccccc1F [Compound 73]	25.6 ± 0.97	11.2 ± 0.81			IC50 [3, 6]: 57.7 ± 1.44 µM
O=S(=O)(F)/C=C/C=C/c1ccc(Br)cc1 [Compound 51]	20.9 ± 1.09	42 ± 1.6	31.2 ± 1.33		
O=S(=O)(F)/C=C/C=C/c1ccc2ccccc2c1 [Compound 55]				47.2 ± 1.52	IC50 [1, 8]: 14.3 ± 1.07 µM; IC50 (human melanoma cell A375; [9]): 5.87 ± 0.2 µM; IC50 ([2]; Homo sapiens, SMMC-7721, 48 h): 34.1 ± 1.45 µM
O=S(=O)(F)/C=C/c1cccc(O)c1 [Compound 34]	23.4 ± 0.88	5.37 ± 0.6	23 ± 0.45		
Cc1cc(C)cc(/C=C/S(=O)(=O)F)c1 [Compound 28]	20.6 ± 2.11	10.2 ± 0.75	16.7 ± 0.65		
O=S(=O)(F)/C=C/C=C/c1ccccc1Cl [Compound 53]	28.5 ± 1.14	17.5 ± 0.98	57.3 ± 2.01		
O=S(=O)(F)/C=C/c1cc(C(F)(F)F)cc(C(F)(F)F)c1 [Compound 68]	21.2 ± 0.8	19.7 ± 1			IC50 [3, 6]: 37.4 ± 1.35 µM
CCOC(=O)c1ccc(/C=C/S(=O)(=O)F)cc1 [Compound 14]	3.6 ± 0.3	50 ± 1.78	27 ± 1.01		
O=[N+]([O-])c1ccc(/C=C/S(=O)(=O)F)cc1 [Compound 12]				2.77 ± 0.58	IC50 [1, 8]: 4.25 ± 0.32 µM; IC50 (human melanoma cell A375; [9]): ~3 µM; IC50 (human melanoma cell A375; [10]): 3.58 ± 0.11 µM
O=S(=O)(F)/C=C/c1ccc(I)cc1 [Compound 63]				45.3 ± 1.87	
COc1ccc(/C=C/S(=O)(=O)F)cc1 [Compound 4]	24.7 ± 2.15	16.9 ± 1.22	73.8 ± 1.7		
O=S(=O)(F)/C=C/c1ccc(Oc2ccccc2)cc1 [Compound 3]	31.8 ± 1.44	27 ± 0.82			
Cc1cc(/C=C/S(=O)(=O)F)ccc1Br [Compound 29]	16.9 ± 0.87	14.3 ± 0.91			
CC(C)S(=O)(=O)c1ccc(/C=C/S(=O)(=O)F)cc1 [Compound 82]				37.9 ± 2.19	IC50 [1, 8]: 28.7 ± 1.21 µM; IC50 (human melanoma cell A375; [9]): 24.2 ± 0.6 µM; IC50 ([2]; Homo sapiens, SMMC-7721, 48 h): 8.95 ± 0.27 µM
O=C1C=C(/C=C/S(=O)(=O)F)CCC1 [Compound 58]					IC50 (telomerase; read-out: IC50 inhibitory activity against telomerase): 39.9 ± 1.29 µM
O=S(=O)(F)/C=C/c1ccc(F)cc1F [Compound 32]	16.1 ± 0.41	12.3 ± 0.41	27 ± 0.9		
